Several values for one entry are separate records, joined by “and”; a condition that tells them apart may be missing. Equal values may be shown once.
Tests used:
[1] = test system: SSTR2 in CA20948 cells; conditions: cited from earlier work
[2] = Ex vivo biodistribution in healthy BALB/c mice; set-up: species or system mouse
Procedure: Quantification of activity was performed with an automated gamma counter equipped with a 3-in NaI(Tl) detector coupled to a multichannel analyzer (2480 Wizard^2, Perkin Elmer, Zaventem, Belgium). The results were corrected for background signal, physical decay during counting and detector dead time.
All animal experiments were performed in compliance with the Ethical Committee Animal Studies of Medanex Clinic (EC MxCl 2020-163 and EC MxCl 2021-173), the Belgian laboratory animal legislation and the European Communities Council Directive of 22 September 2010 (2010/63/EU). Male BALB/c and NMRI nude mice were purchased from Janvier (Bio Services, Uden, The Netherlands) and housed in ventilated cages under standard laboratory conditions (12 h light/dark cycle) at the animal facility of SCK CEN. All animals had access to food and water ad libitum.
Additionally, similar biodistribution studies were performed with free (unlabeled) [^153Sm]SmCl3 to identify the organs with ^153Sm accumulation in case of release from the complex. […] The mice were sacrificed by an overdose pentobarbital (200 µL of 60 mg/mL) 1, 4, 24 and 72 h post-injection (p.i.) (n = 3–4 per time point). Blood was collected via cardiac puncture. Organs of interest were collected in tared tubes and weighed. The activity in the different organs was measured in the gamma counter. For the calculation of the total activity in the blood, bone and muscle, the masses were assumed to be, respectively, 7, 12 and 40% of the total body mass. Data were expressed as a percentage of injected activity (%IA) and standardized uptake value (SUV). %IA was calculated as (counts per min (cpm) in organ)/(IA converted to cpm) × 100. SUV was calculated as (activity in cpm in organ/weight of organ in g)/(IA/total body weight in g).

[3] = 1 h p.i., healthy male BALB/c mice, ~2-3 MBq i.v., mean ± SD, n = 3-4
[4] = 4 h p.i., healthy male BALB/c mice, ~2-3 MBq i.v., mean ± SD, n = 3-4
[5] = 24 h p.i., healthy male BALB/c mice, ~2-3 MBq i.v., mean ± SD, n = 3-4
[6] = 72 h p.i., healthy male BALB/c mice, ~2-3 MBq i.v., mean ± SD, n = 3-4
[7] = mouse, in vivo, iv, listed as [153Sm]SmCl3

SMILES: O=C([O-])CN(CCN(CC(=O)[O-])CC(=O)[O-])CCN(CC(=O)[O-])CC(=O)[O-].[177Lu+3] [[^177Lu]Lu-DTPA]
- affinity towards SSTR2 [1]: complete lack of affinity

SMILES: [153Sm+3].[Cl-].[Cl-].[Cl-] [[^153Sm]SmCl3, reference compound]
- Blood SUV [2, 3]: 2.0 ± 0.5
- Heart SUV [2, 3]: 0.7 ± 0.2
- Lungs %IA [2, 3]: 0.9 ± 0.2 %IA
- Lungs SUV [2, 3]: 1.0 ± 0.2
- Pancreas SUV [2, 3]: 0.2 ± 0.1
- Stomach %IA [2, 3]: 0.5 ± 0.2 %IA
- Bone %IA [2, 4]: 20.1 ± 6.7 %IA
- Heart %IA [2, 4]: 0.2 ± 0.0 %IA
- Intestines %IA [2, 4]: 1.7 ± 0.2 %IA
- Stomach %IA [2, 4]: 0.2 ± 0.0 %IA
- Blood %IA [2, 5]: 0.2 ± 0.0 %IA
- Heart SUV [2, 5]: 0.2 ± 0.0
- Intestines %IA [2, 5]: 1.0 ± 0.2 %IA
- Lungs SUV [2, 5]: 0.2 ± 0.0
- Stomach %IA [2, 5]: 0.2 ± 0.2 %IA
- Lungs SUV [2, 6]: 0.2 ± 0.0
- Muscle %IA [2, 6]: 0.9 ± 0.2 %IA
- Stomach %IA [2, 6]: 0.2 ± 0.1 %IA
- Bone SUV ([2]; mouse, in vivo, iv): 3.1 ± 1.3
- Brain SUV ([2]; mouse, in vivo, iv): 0.0 ± 0.0
- Liver SUV ([2]; mouse, in vivo, iv): 7.7 ± 1.8
- Lungs SUV ([2]; mouse, in vivo, iv): 0.4 ± 0.0
- Bone %IA [2, 7]: 12.1 ± 0.3 %IA and 17.6 ± 3.7 %IA and 21.9 ± 8.9 %IA
- Bone SUV [2, 7]: 1.7 ± 0.0 and 2.9 ± 1.0 and 2.5 ± 0.5
- Excreted %IA [2, 7]: 26.0 ± 8.0 %IA and 21.4 ± 3.9 %IA and 24.2 ± 4.2 %IA and 34.8 ± 11.6 %IA
- Intestines %IA [2, 7]: 2.4 ± 0.5 %IA and 1.5 ± 0.5 %IA
- Liver %IA [2, 7]: 35.9 ± 6.4 %IA and 54.3 ± 5.3 %IA and 53.9 ± 4.2 %IA and 42.9 ± 9.2 %IA
- Liver SUV [2, 7]: 6.9 ± 0.5 and 11.2 ± 1.3 and 10.5 ± 0.8

— article PMC9785812 (Pharmaceutics, 2022)
